From patent publication US8778966B2, “Quinolinone derivatives as PARP and tank inhibitors” (Janssen Pharmaceutica, NV, priority 2007, dated 2014)

Target: T1, TANK-2 enzyme (Homo sapiens, UniProt Q9H2K2)
T1 construct: made in house
T1 sequence (Q9H2K2 1-1166): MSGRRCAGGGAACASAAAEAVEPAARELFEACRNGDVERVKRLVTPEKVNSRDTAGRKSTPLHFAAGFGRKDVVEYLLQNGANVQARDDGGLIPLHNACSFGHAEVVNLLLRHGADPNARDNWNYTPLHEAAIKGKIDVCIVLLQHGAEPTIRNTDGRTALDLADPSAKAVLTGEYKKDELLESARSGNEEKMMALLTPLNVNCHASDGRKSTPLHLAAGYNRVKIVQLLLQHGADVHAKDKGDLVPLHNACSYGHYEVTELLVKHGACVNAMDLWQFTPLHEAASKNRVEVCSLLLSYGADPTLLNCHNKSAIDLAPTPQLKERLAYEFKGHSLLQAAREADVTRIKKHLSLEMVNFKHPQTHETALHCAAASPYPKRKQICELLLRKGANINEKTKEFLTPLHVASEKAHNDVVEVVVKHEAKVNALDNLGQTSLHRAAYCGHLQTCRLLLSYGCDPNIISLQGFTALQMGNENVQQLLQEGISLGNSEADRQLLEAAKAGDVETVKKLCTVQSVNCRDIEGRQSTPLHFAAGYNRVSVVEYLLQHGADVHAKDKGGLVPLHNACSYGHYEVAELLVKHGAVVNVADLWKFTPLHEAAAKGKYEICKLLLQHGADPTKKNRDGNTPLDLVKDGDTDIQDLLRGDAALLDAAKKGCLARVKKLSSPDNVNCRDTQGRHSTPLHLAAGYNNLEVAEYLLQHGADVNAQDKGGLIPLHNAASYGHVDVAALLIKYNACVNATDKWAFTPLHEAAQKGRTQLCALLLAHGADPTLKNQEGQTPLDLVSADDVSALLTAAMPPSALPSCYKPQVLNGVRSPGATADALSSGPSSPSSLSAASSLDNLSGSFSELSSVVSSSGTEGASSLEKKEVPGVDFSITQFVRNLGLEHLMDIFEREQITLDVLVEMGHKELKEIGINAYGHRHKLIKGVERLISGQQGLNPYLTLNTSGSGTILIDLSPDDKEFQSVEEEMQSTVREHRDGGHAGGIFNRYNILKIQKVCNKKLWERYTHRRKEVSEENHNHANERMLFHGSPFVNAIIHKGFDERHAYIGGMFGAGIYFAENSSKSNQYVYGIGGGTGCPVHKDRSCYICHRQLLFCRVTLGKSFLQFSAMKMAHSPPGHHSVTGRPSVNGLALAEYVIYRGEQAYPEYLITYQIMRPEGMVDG
Assay: In vitro Scintillation Proximity Assay (SPA) for TANK-2 inhibitory activity
Type: biochemical
Conditions: read-out: in vitro SPA assay TANK-2 pIC50 (converted)
How it was run: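 TANK-2 (8 μg/ml final) auto-poly(ADP-ribosyl)ation with [3H]-NAD+/NAD donor was run in Ni flash plates in Tris/HCl pH 7.4 buffer with DTT and MgCl2, 120 min at room temperature, then stopped with excess NAD and scintillation-counted. Blank-corrected cpm was expressed as % of enzyme control, and IC50 was linearly interpolated and reported as pIC50.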

Compound | IC50 [nM]
CCc1cc2ccc(C(C)(C#N)Cc3c4ccccc4nn3C)cc2[nH]c1=O (centres unmarked) [Compound 347] | 200
CCc1cc2ccc(C(C)(C#N)Cc3cc(N(C)C)nc(OC)n3)cc2[nH]c1=O (centres unmarked) [Compound 354] | 79.4
CCc1cc2ccc(C(C)(C#N)Cc3nc(OC)cc(N(C)C)n3)cc2[nH]c1=O (centres unmarked) [Compound 355] | 158
CCc1cc2ccc(C(C)(C#N)CN3CCC(c4ccccc4)CC3)cc2[nH]c1=O (centres unmarked) [Compound 375] | 398
CCc1cc2ccc(C(C)(C#N)CN3CCN(c4ccc(C#N)cn4)CC3)cc2[nH]c1=O (centres unmarked) [Compound 377] | 50.1
Cc1cc2ccc([C@](C)(C#N)[C@H]3CCc4ccccc43)cc2[nH]c1=O [Compound 387] | 2510
Cc1cc2ccc(C(C)(C#N)C3CCc4ccccc43)cc2[nH]c1=O (centres unmarked) [Compound 392] | 1260
Cc1cc2ccc(C(C)(C#N)C3CCCc4ccccc43)cc2[nH]c1=O (centres unmarked) [Compound 404] | 2000
Cc1cc2ccc(C(C)(C#N)Cc3cccc(/C=C/CCO)c3)cc2[nH]c1=O (centres unmarked) [Compound 409] | 1000

Continued, values first:

IC50 [nM] | Compound
63.1 | CCc1cc2ccc(C(C)(C#N)Cc3cc(C#N)nc(N(C)C)c3)cc2[nH]c1=O (centres unmarked) [Compound 325]
100 | CCc1cc2ccc(C(C)(C#N)Cc3cccc(NC)n3)cc2[nH]c1=O (centres unmarked) [Compound 339]
501 | CCc1cc2ccc(C(C)(C#N)Cc3ccc4c(c3)OC(F)(F)O4)cc2[nH]c1=O (centres unmarked) [Compound 346]
126 | CCc1cc2ccc(C(C)(C#N)Cc3cc(OC)nc(OC)c3)cc2[nH]c1=O (centres unmarked) [Compound 350]
158 | CCc1cc2ccc(C(C)(C#N)Cc3cc(Cl)nc(OC)c3)cc2[nH]c1=O (centres unmarked) [Compound 351]
79.4 | CCc1cc2ccc(C(C)(C#N)Cc3cc(Cl)nc(C)n3)cc2[nH]c1=O (centres unmarked) [Compound 365]
251 | CCc1cc2ccc(C(C)(C#N)Cc3cc(Br)cc4c3OCC4)cc2[nH]c1=O (centres unmarked) [Compound 378]
100 | CCc1cc2ccc(C(C)(C#N)Cc3cccc4[nH]ccc34)cc2[nH]c1=O (centres unmarked) [Compound 379]
